Laboratory results published in US20060084789A1, “Immunotherapeutic and immunoprphylactic reagents” (priority 2002, published 2006).

Test system: RGP-specific TCL
Assay: TCL proliferation assay (3H-thymidine incorporation, stimulation index)
Assay type: cell-based, human
Details: for Proliferative response, stimulation index: peptides 10 μg/ml; for Lol p 1 peptides recognised by one or more TCL: 34 TCL tested, all recognised with the exception of the four named; for T cell responses to Lol p 5 peptides: 21 TCL tested
Protocol: Generation of Short-Term RGP-Specific TCL
PBMC were cultured in 24-well plates (Costar, Mass., USA) at 2.5×10^6 cells/well with RGP extract at a concentration of 25 or 50 μg/ml in RPMI 1640 medium (Gibco BRL, NY, USA) supplemented with 2 mM GlutaMAX I (Gibco BRL), 0.05 mg/ml gentamicin (David Bull Laboratories, Mulgrave, Victoria, Australia) and 5% heat-inactivated hunan AB^+ serum (Sigma, Mo., USA) for 7 days at 37° C. in a 5% CO2 humidified incubator. At day 7, cells were washed once and restimulated in 24-well plates at 5×10^5 cells/well width 25 or 50 μg/ml of RGP extract in the presence of 5×10^5 cells/well irradiated (3000 rads) autologous PBMC as a source of antigen presenting cells (APC). At day 2 following restimulation, 10 U/ml of Lymphocult T-LF (LC; Biotest, Germany) was added as a source of IL-2 and at day 4, 1 ml of culture medium was removed and replaced with fresh medium and 10 U/ml of LC. […] In all experiments T cells were rested for 6 to 7 days after the last addition of antigen and APC before testing.
T cells (5×10^4/well) were cultured in 96-well U bottom plates with either RGP extract at concentrations ranging from 25 to 200 μg/ml, purified Lol p 1 (0.12 to 2 μg/ml) or Lol p 5 (0.1 to 10 μg/ml), or Lol p 1 or Lol p 5 peptides (10 μg/ml), or medium alone (to determine background levels of proliferation), in the presence of washed autologous irradiated (3000 rads) PBMC (5×10^4/well). […] Cultures were incubated for 3 days, pulsed for the last 16 hours with ^3H-thymidine (1 μCi/well) and harvested onto glass fibre filters. ^3H-thymidine incorporation was measured by liquid scintillation spectroscopy and the mean counts per minute (cpm) for triplicate cultures was determined. Responses were considered positive if the stimulation index (SI, cpm of antigen-stimulated T cells divided by cpm of unstimulated T cells) was ≧2.5. Where several concentrations of allergen were tested (i.e., RGP, Lol p 1 and Lol p 5), values corresponding to the highest proliferation are shown.

[1] = Subject 4 TCL, Lol p 5 series (Table 4), RGP and Lol p 5 maximal response
[2] = Subject 7 TCL, Lol p 5 series (Table 4), RGP and Lol p 5 maximal response
[3] = Subject 2 TCL, Lol p 1 series (Table 3), RGP and Lol p 1 maximal response
[4] = Subject 4 TCL, Lol p 1 series (Table 3), RGP and Lol p 1 maximal response
[5] = Subject 11 TCL, Lol p 1 series (Table 3), RGP and Lol p 1 maximal response
[6] = Subject 12 TCL, Lol p 5 series (Table 4), RGP and Lol p 5 maximal response
[7] = Subject 20 TCL, Lol p 5 series (Table 4), RGP and Lol p 5 maximal response
[8] = Subject 12 TCL, Lol p 1 series (Table 3), RGP and Lol p 1 maximal response
[9] = Subject 3 TCL, Lol p 1 series (Table 3), RGP and Lol p 1 maximal response
[10] = Subject 11 TCL, Lol p 5 series (Table 4), RGP and Lol p 5 maximal response
[11] = Subject 35 TCL, Lol p 5 series (Table 4), RGP and Lol p 5 maximal response
[12] = Subject 36 TCL, Lol p 5 series (Table 4), RGP and Lol p 5 maximal response
[13] = Subject 37 TCL, Lol p 5 series (Table 4), RGP and Lol p 5 maximal response

Substance: AFSESSKGLLATSAAKAPGL (Lolium perenne) [Lol p 5 peptide 64-83]
- Proliferative response, stimulation index [1]: 2.8
- Proliferative response, stimulation index [2]: 2.8

Substance: AGELELQFRRVKCKYPDDTK (Lolium perenne) [Lol p 1 peptide 127-146]
- Proliferative response, stimulation index [3]: 5.8
- Proliferative response, stimulation index (Subject 13 TCL, Lol p 1 series (Table 3), RGP and Lol p 1 maximal response): 3.7
- Proliferative response, stimulation index (Subject 17 TCL, Lol p 1 series (Table 3), RGP and Lol p 1 maximal response): 3.0

Substance: FEIKCTKPESCSGEAVTVTI (Lolium perenne) [Lol p 1 peptide 73-92]
- Proliferative response, stimulation index (Subject 1 TCL, Lol p 1 series (Table 3), RGP and Lol p 1 maximal response): 3.9
- Proliferative response, stimulation index [4]: 2.9
- Proliferative response, stimulation index [5]: 2.6

Substance: KFTVFESAFNKALNECTGGA (Lolium perenne) [Lol p 5 peptide 172-191]
- Proliferative response, stimulation index [1]: 2.7
- Proliferative response, stimulation index [6]: 2.5
- Proliferative response, stimulation index [7]: 3.0

Substance: Lol p 1 peptide 46-65: synthetic 20-mer, amino acids 46-65 of Lol p 1A (SEQ ID NO:1) (VDKAPFNGMTGCGNTPIFKD; Lolium perenne)
- Proliferative response, stimulation index (Subject 5 TCL, Lol p 1 series (Table 3), RGP and Lol p 1 maximal response): 8.4
- Proliferative response, stimulation index [8]: 4.0

Substance: Lol p 1 peptide 55-74: synthetic 20-mer, amino acids 55-74 of Lol p 1A (SEQ ID NO:1) (TGCGNTPIFKDGRGCGSCFE; Lolium perenne)
- Lol p 1 peptides recognised by one or more TCL: exception

Substance: Lol p 1 peptide 82-101: synthetic 20-mer, amino acids 82-101 of Lol p 1A (SEQ ID NO:1) (SCSGEAVTVTITDDNEEPIA; Lolium perenne)
- Proliferative response, stimulation index [9]: 3.6
- Proliferative response, stimulation index [5]: 3.6

Substance: Lol p 1 peptide 91-110: synthetic 20-mer, amino acids 91-110 of Lol p 1A (SEQ ID NO:1)
- Proliferative response, stimulation index [4]: 3.6
- Proliferative response, stimulation index [5]: 4.9

Substance: Lol p 1 peptide 118-137: synthetic 20-mer, amino acids 118-137 of Lol p 1A (SEQ ID NO:1) (KGEEQKLRASAGELELQFRR; Lolium perenne)
- Proliferative response, stimulation index [3]: 6.2
- Proliferative response, stimulation index [8]: 2.5

Substance: Lol p 1 peptide 145-164: synthetic 20-mer, amino acids 145-164 of Lol p 1A (SEQ ID NO:1) (GTKPTFHVEKASNPNYLAIL; Lolium perenne)
- Proliferative response, stimulation index [8]: 4.5

Substance: Lol p 1 peptide 163-182: synthetic 20-mer, amino acids 163-182 of Lol p 1A (SEQ ID NO:1) (ILVKYVDGDGDVVAVDIKEK; Lolium perenne)
- Lol p 1 peptides recognised by one or more TCL: exception
- Proliferative response, stimulation index (Subject 23 TCL, Lol p 1 series (Table 3), RGP and Lol p 1 maximal response): 4.2

Substance: Lol p 1 peptide 172-191: synthetic 20-mer, amino acids 172-191 of Lol p 1A (SEQ ID NO:1) (GDVVAVDIKEKGKDKWIELK; Lolium perenne)
- Proliferative response, stimulation index (Subject 9 TCL, Lol p 1 series (Table 3), RGP and Lol p 1 maximal response): 2.5

Substance: Lol p 1 peptide 199-218: synthetic 20-mer, amino acids 199-218 of Lol p 1A (SEQ ID NO:1) (RIDTPDKLTGPFTVRYTTEG; Lolium perenne)
- Lol p 1 peptides recognised by one or more TCL: exception

Substance: Lol p 1 peptide 208-227: synthetic 20-mer, amino acids 208-227 of Lol p 1A (SEQ ID NO:1) (GPFTVRYTTEGGTKSEVEDV; Lolium perenne)
- Lol p 1 peptides recognised by one or more TCL: exception
- Proliferative response, stimulation index [9]: 4.4

Substance: Lol p 1 peptide 217-236: synthetic 20-mer, amino acids 217-236 of Lol p 1A (SEQ ID NO:1) (EGGTKSEVEDVIPEGWKADT; Lolium perenne)
- Proliferative response, stimulation index [9]: 3.3
- Proliferative response, stimulation index [5]: 4.4

Substance: Lol p 1 peptide 221-240: synthetic 20-mer, amino acids 221-240 of Lol p 1A (SEQ ID NO:1) (KSEVEDVIPEGWKADTSYSA; Lolium perenne)
- Proliferative response, stimulation index [5]: 3.3

Substance: Lol p 5 peptide 73-92: synthetic 20-mer, amino acids 73-92 of Lol p 5A (SEQ ID NO:2) (LATSAAKAPGLIPKLDTAYD; Lolium perenne)
- Proliferative response, stimulation index [2]: 2.6

Substance: Lol p 5 peptide 82-101: synthetic 20-mer, amino acids 82-101 of Lol p 5A (SEQ ID NO:2) (GLIPKLDTAYDVAYKAAEGA; Lolium perenne)
- T cell responses to Lol p 5 peptides: nor were T cell responses detected

Substance: Lol p 5 peptide 91-110: synthetic 20-mer, amino acids 91-110 of Lol p 5A (SEQ ID NO:2) (YDVAYKAAEGATPEAKYDAF; Lolium perenne)
- T cell responses to Lol p 5 peptides: nor were T cell responses detected

Substance: Lol p 5 peptide 100-119: synthetic 20-mer, amino acids 100-119 of Lol p 5A (SEQ ID NO:2) (GATPEAKYDAFVTALTEALR; Lolium perenne)
- Proliferative response, stimulation index [1]: 3.8
- Proliferative response, stimulation index [10]: 10.0
- Proliferative response, stimulation index [6]: 7.5
- Proliferative response, stimulation index [11]: 2.5

Substance: Lol p 5 peptide 109-128: synthetic 20-mer, amino acids 109-128 of Lol p 5A (SEQ ID NO:2) (AFVTALTEALRVIAGALEVH; Lolium perenne)
- T cell responses to Lol p 5 peptides: nor were T cell responses detected

Substance: Lol p 5 peptide 127-146: synthetic 20-mer, amino acids 127-146 of Lol p 5A (SEQ ID NO:2) (VHAVKPATEEVPAAKIPTGE; Lolium perenne)
- T cell responses to Lol p 5 peptides: nor were T cell responses detected

Substance: Lol p 5 peptide 136-155: synthetic 20-mer, amino acids 136-155 of Lol p 5A (SEQ ID NO:2) (EVPAAKIPTGELQIVDKIDA; Lolium perenne)
- T cell responses to Lol p 5 peptides: nor were T cell responses detected

Substance: Lol p 5 peptide 163-182: synthetic 20-mer, amino acids 163-182 of Lol p 5A (SEQ ID NO:2) (AANAAPTNDKFTVFESAFNK; Lolium perenne)
- Proliferative response, stimulation index [7]: 2.5

Substance: Lol p 5 peptide 181-200: synthetic 20-mer, amino acids 181-200 of Lol p 5A (SEQ ID NO:2) (NKALNECTGGAYETYKFIPS; Lolium perenne)
- Proliferative response, stimulation index [7]: 3.4

Substance: PEVKYAVFEAALTKAITAMT (Lolium perenne) [Lol p 5 peptide 217-236]
- Proliferative response, stimulation index [10]: 5.4
- Proliferative response, stimulation index [7]: 4.5
- Proliferative response, stimulation index (Subject 27 TCL, Lol p 5 series (Table 4), RGP and Lol p 5 maximal response, † affinity purified Lol p 5): 9.5
- Proliferative response, stimulation index [11]: 3.5
- Proliferative response, stimulation index [12]: 3.5
- Proliferative response, stimulation index [13]: 11.0

Substance: VAAAANAPPADKFKIFEAAF (Lolium perenne) [Lol p 5 peptide 46-65]
- Proliferative response, stimulation index [6]: 6.5
- Proliferative response, stimulation index [12]: 2.7
- Proliferative response, stimulation index [13]: 6.6
